Calls of active or inactive are those of the source. No cut-off for these calls is given here.
tested on: PBMC; assay: Effects of compound on IL-2 production in anti-CD3/CD28-stimulated human PBMCs assessed as increase in IL-2 level after 2 days by ELISA; assay type: functional, tissue-based; details: dose 1-10 µM, time 2.0 day

With O=C(c1ccccc1)N1CCN(c2cc(N3CCCCC3)c(F)cc2[N+](=O)[O-])CC1 the Activity was “Dose-Dependent Effect”.

target: T1, Probable G-protein coupled receptor 174 (Homo sapiens, UniProt Q9BXC1); assay: Inverse agonist activity at human GPR174 assessed as fold decrease in Gs signalling activity by CRA; assay type: functional; details: filed as inverse agonist
T1 sequence (Q9BXC1 whole entry): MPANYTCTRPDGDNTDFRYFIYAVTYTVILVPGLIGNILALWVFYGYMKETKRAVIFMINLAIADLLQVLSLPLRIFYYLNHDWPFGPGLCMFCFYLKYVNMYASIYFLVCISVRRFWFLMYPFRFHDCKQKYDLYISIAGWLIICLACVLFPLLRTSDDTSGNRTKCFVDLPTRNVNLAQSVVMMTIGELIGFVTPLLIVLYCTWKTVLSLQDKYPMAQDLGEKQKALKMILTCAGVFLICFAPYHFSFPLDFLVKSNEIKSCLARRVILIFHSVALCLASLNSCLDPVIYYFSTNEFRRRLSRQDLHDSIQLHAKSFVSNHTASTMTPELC

Compared with CCOC(=O)N1CCN(c2cc(N3CCCCC3)c(F)cc2[N+](=O)[O-])CC1, CCC(=O)N1CCN(c2cc(N3CCCCC3)c(F)cc2[N+](=O)[O-])CC1 is higher in fold change (FC): 0.3 for the first, 0.5 for the second.

First: CCC(=O)N1CCN(c2cc(N3CCC(C)CC3)c(F)cc2[N+](=O)[O-])CC1
Second: CC(=O)N1CCN(c2cc(N3CCC(C)CC3)c(F)cc2[N+](=O)[O-])CC1
The fold change (FC) of the first is lower: 0.4 for the first, 0.8 for the second.

First: O=C1CCCC2=C1C(c1ccc(Oc3ccccc3)cc1)C1=C(N2)c2ccccc2C1=O (stereo unspecified)
Second: O=C1CCCC2=C1C(c1ccc(-c3ccccc3)cc1)C1=C(N2)c2ccccc2C1=O (stereo unspecified)
The fold change (FC) of the first is lower: 1 for the first, 2.5 for the second.

Compared with CC(=O)N1CCN(c2cc(N3CCCCC3)c(F)cc2[N+](=O)[O-])CC1, CCCC(=O)N1CCN(c2cc(N3CCCCC3)c(F)cc2[N+](=O)[O-])CC1 is higher in fold change (FC): 0.3 for the first, 0.9 for the second.

First: CCOc1ccc(C2C3=C(CCCC3=O)NC3=C2C(=O)c2ccccc23)cn1 (stereo unspecified)
Second: CCc1ccc(C2C3=C(CCCC3=O)NC3=C2C(=O)c2ccccc23)cn1 (stereo unspecified)
The fold change (FC) of the first is lower: 0.6 for the first, 2 for the second.

Going from C=C(C)COc1ccc(NC(=O)Nc2ccccc2)cc1 to CCOc1ccc(C2C3=C(CCCC3=O)NC3=C2C(=O)c2ccccc23)cc1 (stereo unspecified), the fold change (FC) falls from 0.5 to 0.4.

Compared with CC(C)C(=O)N1CCN(c2cc(N3CCCCC3C)c(F)cc2[N+](=O)[O-])CC1 (stereo unspecified), CCOC(=O)N1CCN(c2cc(N3CCCCC3C)c(F)cc2[N+](=O)[O-])CC1 (stereo unspecified) is higher in fold change (FC): 0.8 for the first, 1 for the second.

Compared with C=CCOc1ccc(C2C3=C(CCCC3=O)NC3=C2C(=O)c2ccccc23)cc1 (stereo unspecified), CCCOc1ccc(C2C3=C(CCCC3=O)NC3=C2C(=O)c2ccccc23)cc1 (stereo unspecified) is lower in fold change (FC): 1.2 for the first, 1 for the second.

Going from O=C1CCCC2=C1C(c1ccc(Cl)cc1)C1=C(N2)c2ccccc2C1=O (stereo unspecified) to CC(C)c1ccc(C2C3=C(CCCC3=O)NC3=C2C(=O)c2ccccc23)cc1 (stereo unspecified), the fold change (FC) falls from 3 to 1.2.

CCOC(=O)N1CCN(c2cc(N3CCC(C)CC3)c(F)cc2[N+](=O)[O-])CC1 and CC1CCN(c2cc(N3CCN(C(=O)c4cccs4)CC3)c([N+](=O)[O-])cc2F)CC1 are the same in fold change (FC): 0.4 for the first, 0.4 for the second.

Compared with CCCCCCOc1ccc(C2C3=C(CCCC3=O)NC3=C2C(=O)c2ccccc23)cc1 (stereo unspecified), CCCCOc1ccc(C2C3=C(CCCC3=O)NC3=C2C(=O)c2ccccc23)cc1 (stereo unspecified) is higher in fold change (FC): 0.5 for the first, 1.2 for the second.

Going from Cc1nnc(-c2ccc(C3C4=C(CCCC4=O)NC4=C3C(=O)c3ccccc34)cc2)o1 (stereo unspecified) to COc1ccc(C2C3=C(CCCC3=O)NC3=C2C(=O)c2ccccc23)cc1 (stereo unspecified), the fold change (FC) falls from 2.8 to 1.

First: O=C1CCCC2=C1C(c1ccc([N+](=O)[O-])cc1)C1=C(N2)c2ccccc2C1=O (stereo unspecified)
Second: CS(=O)(=O)c1ccc(C2C3=C(CCCC3=O)NC3=C2C(=O)c2ccccc23)cc1 (stereo unspecified)
The fold change (FC) of the first is lower: 2.7 for the first, 3.3 for the second.

Compared with O=C1CCCC2=C1C(c1ccc3c(c1)OCCO3)C1=C(N2)c2ccccc2C1=O (stereo unspecified), CCc1ccc(C2C3=C(CCCC3=O)NC3=C2C(=O)c2ccccc23)cc1 (stereo unspecified) is lower in fold change (FC): 2.6 for the first, 0.5 for the second.

First: O=C1CCCC2=C1C(c1ccc(OC3CCCC3)cc1)C1=C(N2)c2ccccc2C1=O (stereo unspecified)
Second: O=C1CCCC2=C1C(c1ccc(OC(F)F)cc1)C1=C(N2)c2ccccc2C1=O (stereo unspecified)
The fold change (FC) of the first is lower: 1 for the first, 1.2 for the second.

First: CC(C)(C)Oc1ccc(C2C3=C(CCCC3=O)NC3=C2C(=O)c2ccccc23)cc1 (stereo unspecified)
Second: O=C1CCCC2=C1C(c1ccc(OC(F)(F)F)cc1)C1=C(N2)c2ccccc2C1=O (stereo unspecified)
The fold change (FC) of the first is higher: 1.3 for the first, 1.2 for the second.

Compared with O=C(c1ccccc1)N1CCN(c2cc(N3CCCCC3)c(F)cc2[N+](=O)[O-])CC1, O=[N+]([O-])c1cc(F)c(N2CCCCC2)cc1N1CCN(S(=O)(=O)c2ccccc2)CC1 is higher in fold change (FC): 0.3 for the first, 0.5 for the second.

Compared with Cc1ccc(S(=O)(=O)N2CCN(c3cc(N4CCC(C)CC4)c(F)cc3[N+](=O)[O-])CC2)cc1, Cc1ccc(S(=O)(=O)N2CCN(c3cc(N4CCCCC4)c(F)cc3[N+](=O)[O-])CC2)cc1 is higher in fold change (FC): 1.1 for the first, 1.7 for the second.

Compared with CC(C)Oc1ccc(C2C3=C(CCCC3=O)NC3=C2C(=O)c2ccccc23)cc1 (stereo unspecified), O=C1CCCC2=C1C(c1ccc(OCCO)cc1)C1=C(N2)c2ccccc2C1=O (stereo unspecified) is higher in fold change (FC): 0.6 for the first, 4.4 for the second.

Compared with O=[N+]([O-])c1cc(F)c(N2CCCCCC2)cc1N1CCN(S(=O)(=O)c2ccccc2)CC1, CCOc1cccc(C2C3=C(CCCC3=O)NC3=C2C(=O)c2ccccc23)c1 (stereo unspecified) is lower in fold change (FC): 1.8 for the first, 1.6 for the second.

target: T1, Probable G-protein coupled receptor 174; assay: Antagonist activity at human GPR174 by CRA; assay type: functional; details: not given

Compound Cc1ccccc1Nc1nnc(-c2ccc(C)c(S(N)(=O)=O)c2)c2ccccc12 has an EC50 of 500 nM.

tested on: Splenocyte; assay: Effects of compound on IL-2 production in anti-CD3/CD28-stimulated wild type mouse spleenocytes assessed as fold increase in IL-2 level at 0.3 uM after 2 days in presence of NECA; assay type: functional; details: time 2 day

In the case of O=C(c1ccccc1)N1CCN(c2cc(N3CCCCC3)c(F)cc2[N+](=O)[O-])CC1, the “fold change (FC)” value is reported as 1.7.

tested on: Splenocyte; assay: Effects of compound on IL-2 production in anti-CD3/CD28-stimulated wild type mouse spleenocytes assessed as fold increase in IL-2 level at 0.3 uM after 2 days in presence of […] and NECA; assay type: functional; details: time 2 day

In the case of O=C(c1ccccc1)N1CCN(c2cc(N3CCCCC3)c(F)cc2[N+](=O)[O-])CC1, the “fold change (FC)” value is reported as 4.9.

tested on: Splenocyte; assay: Effects of compound on IL-2 production in anti-CD3/CD28-stimulated GPR174 knock out mouse spleenocytes assessed as fold increase in IL-2 level at 0.3 uM after 2 days in presence of NECA; assay type: functional, cell-based; details: time 2.0 day

In the case of O=C(c1ccccc1)N1CCN(c2cc(N3CCCCC3)c(F)cc2[N+](=O)[O-])CC1, the Activity is reported as “inactive”.

tested on: not listed separately; assay: Effects of compound on IL-2 production in anti-CD3/CD28-stimulated human PBMCs assessed as fold increase in IL-2 level at 10 uM after 24 hrs by ELISA; assay type: functional, PBMC; details: not given

With Nc1ncnc2c1ncn2[C@@H]1O[C@H](COP(=O)(O)CP(=O)([O-])O)[C@@H](O)[C@H]1O.[Na+] the “fold change (FC)” value was 1.5.
